According to patent US5880146A, “Inhibition of IL-12-induced IFN-γ synthesis by specific bis-phenol compounds as a method of immune modulation” (Fuji ImmunoPharmaceuticals Corporation, priority 1995, dated 1999):

Columns and labels:
[1] = system: T cell response of human PBMC to allogenic stimulation by Namalwa cells; test: Mixed Lymphocyte Reaction (proliferation and IFN-γ secretion); format: cell-based; conditions: 6 days; FIGS. 1-3
Protocol: This reaction measures the T cell response to allogenic stimulation by a mismatch of class II histocompatability antigens. This is triggered through the T cell receptor and activates the T cell to secrete and proliferate in response to endogenous IL-2. IFN-γ is also made in response to this stimulation and accumulates in the culture medium. Compounds are tested for their ability to block the proliferation and response to antigenic stimulation as well as their ability to produce IFN-γ as follows. A human B cell ine expressing class II antigen, Namalwa (American Type Culture Collection), is incubated for 2 hr at 37° C. in RPMI-10 containing mitomycin C (50 μg/ml). These cells are washed four times by centrifugation and resuspension (10^6 cells/ml) in SF-RPMI medium and are added to the wells of 96-well plate (50 μl/well) as stimulators. Mitomycin treatment prevents these cells from proliferating in the assay. Fresh PBMC are prepared as described above in example 1, but are not activated with PHA. Instead they are resuspended at 10^6 cells/ml and 100 μl is added per well. Dilutions of test compounds are added (50 μl/well) to give a final volume of 200 μl and the plates are incubated for 6 days at 37° C. During the last 18 hr, ^3 H-thymidine (DuPont-NEN- 1 μCi/well) is added as a measure of cell proliferation, cultures are collected using a cell harvester (Packard), and scintillation fluid is added prior to counting in a Packard Top Count scintillation counter. A sample of medium is also collected for measurement of IFN-γ production prior to the addition of ^3 H-thymidine for use as a negative control.

[2] = Cell viability (MTS) after treatment with bis-compound; format: cell-based; conditions: human, pha-activated pbmc, 5 μg/ml
Protocol: Human peripheral blood monocytes (PBMC) were obtained from commercial sources as a leukophoresis from a healthy volunteer and were purified by centrifugation on a Ficoll-Hypaque (Pharmacia) gradient (1700 rpm for 20 min). The "buffy" coat containing the PBMC was diluted with serum-free culture medium (SF-RPMI) to a volume of 50 ml and collected by centrifugation at 1500 rpm for 5 min. Cells were resuspended in cell culture medium containing 10% fetal bovine serum (RPMI-10) and phytohemaglutinin (PHA - 10 μg/ml) at a density of 5×10^6 cells/ml and were cultured for 3 days at 37° C. in a humidified CO2 incubator. The PHA-activated cells were collected by centrifugation, washed three times with an equal volume of SF-RPMI and resuspended in fresh RPMI-10 (1×10^6 cells /ml). Aliquots (100 μl) were dispensed into the wells of multiple 96-well plates to give a final cell number of 10^5 per well. Test compounds, dissolved in dimethyl sulfoxide (DMSO) at 1 mg/ml, were first diluted in culture medium to an intermediate concentration of 20 μg/ml and then were added (50 μwell) to a specific well of the plate for each compound. Stimulation medium (50 μl/well) containing 10% serum, IL-2 and IL-12 was added to final concentrations of 25 U/ml and 0.5 ng/ml, respectively. Control wells receive no IL-2 or IL-12 (negative control) or received both interleukins but no test compound (positive control). The plates were incubated for 48 hr at 37° C. in a CO2 incubator at which time aliquots (20 μl) were removed for analysis of IFN-γ concentration by ELISA. A quantitative ELISA was developed by coating 96-well plates with an mouse monoclonal antibody against human IFN-γ, 1 μg/ml in phosphate buffered saline (PBS) (Pestka Biological Laboratories), overnight at 4° C. Unbound antibody was washed off by washing three times with PBS. Non-specific antibody binding was blocked with a solution of 1% bovine serum albumin (BSA) and 1% goat serum in PBS (150 μl/well) which was incubated for 2 hr at 37° C. After washing the blocked plates four times with PBS, test samples and dilutions of the IFN-γ standard are added in a final volume of 100 μl/well. Following an overnight incubation at 4° C., the plates are washed four times with PBS, and a polyclonal rabbit antiserum against human IFN-γ (1/10000 dilution--Petska Biological Laboratories) is added. After an additional incubation for 1 hr at 37° C. and four washes with PBS, a polyclonal donkey anti-rabbit detecting antibody, conjugated to horseradish peroxidase (1/700 dilution--Petska Biological Laboratories) is added for 1 hr at 37° C. The plates are then washed four times with PBS and 100 μl of K-blue substrate E(ILISA Technologies, Neogen Corp.) is added until the color in the wells containing the standard curve is sufficiently developed, at which time 100 μl of "Red-stop" solution (ELISA Technologies) is added. The absorbance of the solution within each well of the plate is then read at 650 nm using an ELISA plate reader (Dynatech MR7000). The amount of IFN-γ is calculated by comparing the optical density of the test sample with a standard curve derived from the dilutions of the control IFN-y. […] MTS is a chemical chromophore that is metabolized in the mitochondria of viable cells to produce a color which increases in intensity in proportion to the numbers of viable cells. The absorbance of the cell culture can be compared to control cultures in order to determine the percent viability.

## CCCCCCCC(c1cc(C)cc(C)c1O)c1cc(C)cc(C)c1O [Compound 51852]
[1]
  inhibition of IFN-γ secretion versus cell proliferation (in words): more potent inhibitors of secretion at concentrations that do not effect cell proliferation
[2]
  viability: 105%

## Cc1cc(C)c(O)c(C(CC(C)CC(C)(C)C)c2cc(C)cc(C)c2O)c1 (stereo not shown) [Compound 51853, bis-1,1-[2-hydroxy-3,5-dimethylphenyl]-3,5,5-dimethyl hexan]
[1]
  inhibition of IFN-γ secretion versus cell proliferation (in words): more potent inhibitors of secretion at concentrations that do not effect cell proliferation
[2]
  viability: 104%
